# Measurements reported in paper PMC5371653, “Pharmacological and Biochemical Characterization of TLQP-21 Activation of a Binding Site on CHO Cells” (Frontiers in Pharmacology, 2017).
# Read-outs that look alike come from different tables or passages of the source.
# Assays:
# CHO cells [1] = assay type: cell-based; conditions: for intracellular Ca2+ levels, maximal response (ΔF/F): peptide 1 μM, vs. HBSS, at least five wells
# Method: CHO cells were plated at 20.000 cells/well into black walled, clear bottom 96-well plate (Corning, Germany) and cultured one day up to 80–90% of confluence. […] TLQP-21, TLQP-62, TLQP-8, HHPD-41, HFHH-10, and LRPS-21 were diluted in HBSS solution and injected into the wells by an automated injector system. […] Depletion of Ca^2+ from the ER leads to Ca^2+ entry from outside the cell by activation of Store-Operated Channels (SOCs).
# [2] = system: TLQP-21 binding sites on CHO cell membranes; assay: TLQP-21 binding assay with [125I]-YATL-23 on crude CHO cell membranes; conditions: competition with 1 nM [125I]-YATL-23, competitor 10 pM to 0.1 μM
# Method: Binding of TLQP-21 to crude membranes (30,000 × g pellet) obtained from CHO cells was carried out using [^125I]-YATL-23 as ligand. YATL-23 was radioiodinated (specific activity, 2000 Ci/mmol) using the lactoperoxidase method ([Muccioli et al., 1998]; [Muccioli et al., 2001]) by Perkin Elmer (Milan, Italy) and purified by reverse phase high-performance liquid chromatography. For the single point binding assay, cell membranes (corresponding to 100 μg membrane protein) were incubated in triplicate at 23°C, unless otherwise noted, for 4 h under constant shaking with 0.5 nM [^125I]-YATL-23 in a final volume of 0.5 ml assay buffer (50 mM Tris, 2.5 mM EGTA, 0.002% bacitracin, 0.1% bovine serum albumin, titrated to a final pH of 7.4 with HCl). Non-specific binding was measured in parallel incubations with 1 μM unlabelled YATL-23 to displace the radioligand. Similar results were obtained using TLQP-21 to displace the radioligand. The binding reaction was terminated by the addition of ice-cold assay buffer, followed by rapid filtration through Whatman GF/B filters as previously reported ([Muccioli et al., 1998]) and the radioactivity bound to membranes was measured by a Packard auto-γ-counter. Specific binding-values were calculated as the difference obtained subtracting non-specific from total binding. Specific binding was expressed as a percentage of the total radioactivity added. […]
# CHO cells [3] = conditions: ref Cassina et al., 2013; cited from earlier work
# From the text: Among several bioactive peptides derived from VGF, TLQP-21 (VGF^556-576) is a 21 amino acid peptide which has been immunopurified from brain tissues ([Bartolomucci et al., 2006]). Despite many efforts to characterize the physiological effects of TLQP-21, little is known about its molecular targets. Nonetheless, adipocytes express a high affinity binding site for TLQP-21 and in these cells TLQP-21 stimulates a pro-lipolytic effect ([Possenti et al., 2012]).
# [4] = inhibitor 10 μM, 20 min pretreatment, then 1 μM TLQP-21
molecule,measurement,setting,value
"NCCOB(c1ccccc1)c1ccccc1 [2-APB, 2-Aminoethyl diphenylborinate]",decrement of TLQP-21 intracellular Ca2+ mobilization,"CHO cells [1]; inhibitor 75 μM, 15 min preincubation, then 1 μM TLQP-21",about 79%
O=C(O)CN(CCOCCOCCN(CC(=O)O)CC(=O)O)CC(=O)O [EGTA],decrement in TLQP-21-mediated intracellular Ca2+ mobilization,"CHO cells [1]; chelator 1 mM, 30 min pretreatment, then 1 μM TLQP-21",~45%
COc1ccc(CCCOC(Cn2ccnc2)c2ccc(OC)cc2)cc1 (stereo not shown) [SKF-96365],decrement in TLQP-21-mediated intracellular Ca2+ mobilization,CHO cells [1]; [4],about 36%
"C/C=C(/C)C(=O)O[C@H]1C(C)=C2[C@H]([C@@H]1OC(=O)CCCCCCC)[C@@](C)(OC(C)=O)C[C@H](OC(=O)CCC)[C@@]1(O)[C@H]2OC(=O)[C@@]1(C)O [TG, thapsigargin]",reduction of TLQP-21-mediated increase of intracellular Ca2+,"CHO cells [1]; inhibitor 2 μM, 20 min preincubation, then 1 μM TLQP-21",56%
CC(C)C[C@H](NC(=O)[C@@H](N)[C@@H](C)O)C(=O)N[C@@H](CCC(N)=O)C(=O)N1CCC[C@H]1C(=O)N1CCC[C@H]1C(=O)N[C@@H](C)C(=O)N[C@@H](CO)C(=O)N[C@@H](CO)C(=O)N[C@@H](CCCNC(=N)N)C(=O)N[C@@H](CCCNC(=N)N)C(=O)N[C@@H](CCCNC(=N)N)C(=O)N[C@@H](Cc1c[nH]cn1)C(=O)N[C@@H](Cc1ccccc1)C(=O)N[C@@H](Cc1c[nH]cn1)C(=O)N[C@@H](Cc1c[nH]cn1)C(=O)N[C@@H](C)C(=O)N[C@@H](CC(C)C)C(=O)N1CCC[C@H]1C(=O)N1CCC[C@H]1C(=O)N[C@@H](C)C(=O)N[C@@H](CCCNC(=N)N)C(=O)O [TLQP-21],EC50,"CHO cells [1]; CHO cells, stated as 1 μM being close to the EC50, read-out: EC50 of intracellular Ca2+ mobilization",~1000 nM
COc1ccc2c(c1)CC[C@@H]1[C@@H]2CC[C@]2(C)[C@@H](NCCCCCCN3C(=O)C=CC3=O)CC[C@@H]12 [U73122],reduction of TLQP-21 stimulation of intracellular Ca2+ mobilization,"CHO cells [1]; inhibitor 10 μM, 10 min preincubation, then 1 μM TLQP-21",about 82%
Cc1nnsc1C(=O)Nc1ccc(-n2nc(C(F)(F)F)cc2C(F)(F)F)cc1 [YM-58483],decrement in TLQP-21-mediated intracellular Ca2+ mobilization,CHO cells [1]; [4],~27%
Cyclosporine A [CsA],basal levels of intracellular Ca2+,"CHO cells [1]; 2 μM, before TLQP-21",did not modify
same,effect on TLQP-21 Ca2+ stimulation,"CHO cells [1]; inhibitor 2 μM, 15 min preincubation, then 1 μM TLQP-21",did not affect
"HFHHALPPAR [HFHH-10, 10 amino acids at the C-terminal of TLQP-21]","intracellular Ca2+ levels, maximal response (ΔF/F)",CHO cells [1]; repeated at least three times,effectively stimulated
"HHPDLEAQARRAQEEADAEERRLQEQEELENYIEHVLLHRP [HHPD-41, VGF-derived peptide from processing of TLQP-62]","intracellular Ca2+ levels, maximal response (ΔF/F)",CHO cells [1]; repeated at least three times,ineffective
"LRPSHTRPAHQSFARP LHRPA [LRPS-21, scrambled control peptide with the same amino acid residues as TLQP-21]",inhibition of [125I]-YATL-23 binding to CHO membranes,[2],not inhibited
same,stimulation of intracellular Ca2+ in CHO cells,CHO cells [3],did not stimulate
same,"intracellular Ca2+ levels, maximal response","CHO cells [1]; peptide 1 nM–10 μM, TLQP-21 significant (P < 0.05) at 0.1 μM–10 μM, at least six wells, repeated at least three times",did not stimulate
"TLQPPASS [TLQP-8, 8 amino acids at the N-terminal of TLQP-21]","intracellular Ca2+ levels, maximal response (ΔF/F)",CHO cells [1]; repeated at least three times,slight and non-significant increase
TLQPPASSRRRHFHHALPPARHHPDLEAQARRAQEEADAEERRLQEQEELENYIEHVLLHRP [TLQP-62],"intracellular Ca2+ levels, maximal response (ΔF/F)",CHO cells [1]; repeated at least three times,failed to stimulate any significant increase
